Experimental data taken from patent US8530461B2 (Boehringer Ingelheim International GmbH, priority 2011, dated 2013).

molecular target: T1, human ACC2 (Homo sapiens, UniProt O00763); test: ACC2 assay, spectrophotometric 384 well assay (NADH-linked, coupled lactate dehydrogenase/pyruvate kinase); format: biochemical; conditions: ACC2 assay; human ACC2 construct lacking 128 N-terminal amino acids; 25° C., 340 nm, 15 minutes; read-out: IC50
T1 construct: made in house; host or cells: insect cells (baculoviral expression system)
T1 sequence (O00763 129-2458 limits assumed): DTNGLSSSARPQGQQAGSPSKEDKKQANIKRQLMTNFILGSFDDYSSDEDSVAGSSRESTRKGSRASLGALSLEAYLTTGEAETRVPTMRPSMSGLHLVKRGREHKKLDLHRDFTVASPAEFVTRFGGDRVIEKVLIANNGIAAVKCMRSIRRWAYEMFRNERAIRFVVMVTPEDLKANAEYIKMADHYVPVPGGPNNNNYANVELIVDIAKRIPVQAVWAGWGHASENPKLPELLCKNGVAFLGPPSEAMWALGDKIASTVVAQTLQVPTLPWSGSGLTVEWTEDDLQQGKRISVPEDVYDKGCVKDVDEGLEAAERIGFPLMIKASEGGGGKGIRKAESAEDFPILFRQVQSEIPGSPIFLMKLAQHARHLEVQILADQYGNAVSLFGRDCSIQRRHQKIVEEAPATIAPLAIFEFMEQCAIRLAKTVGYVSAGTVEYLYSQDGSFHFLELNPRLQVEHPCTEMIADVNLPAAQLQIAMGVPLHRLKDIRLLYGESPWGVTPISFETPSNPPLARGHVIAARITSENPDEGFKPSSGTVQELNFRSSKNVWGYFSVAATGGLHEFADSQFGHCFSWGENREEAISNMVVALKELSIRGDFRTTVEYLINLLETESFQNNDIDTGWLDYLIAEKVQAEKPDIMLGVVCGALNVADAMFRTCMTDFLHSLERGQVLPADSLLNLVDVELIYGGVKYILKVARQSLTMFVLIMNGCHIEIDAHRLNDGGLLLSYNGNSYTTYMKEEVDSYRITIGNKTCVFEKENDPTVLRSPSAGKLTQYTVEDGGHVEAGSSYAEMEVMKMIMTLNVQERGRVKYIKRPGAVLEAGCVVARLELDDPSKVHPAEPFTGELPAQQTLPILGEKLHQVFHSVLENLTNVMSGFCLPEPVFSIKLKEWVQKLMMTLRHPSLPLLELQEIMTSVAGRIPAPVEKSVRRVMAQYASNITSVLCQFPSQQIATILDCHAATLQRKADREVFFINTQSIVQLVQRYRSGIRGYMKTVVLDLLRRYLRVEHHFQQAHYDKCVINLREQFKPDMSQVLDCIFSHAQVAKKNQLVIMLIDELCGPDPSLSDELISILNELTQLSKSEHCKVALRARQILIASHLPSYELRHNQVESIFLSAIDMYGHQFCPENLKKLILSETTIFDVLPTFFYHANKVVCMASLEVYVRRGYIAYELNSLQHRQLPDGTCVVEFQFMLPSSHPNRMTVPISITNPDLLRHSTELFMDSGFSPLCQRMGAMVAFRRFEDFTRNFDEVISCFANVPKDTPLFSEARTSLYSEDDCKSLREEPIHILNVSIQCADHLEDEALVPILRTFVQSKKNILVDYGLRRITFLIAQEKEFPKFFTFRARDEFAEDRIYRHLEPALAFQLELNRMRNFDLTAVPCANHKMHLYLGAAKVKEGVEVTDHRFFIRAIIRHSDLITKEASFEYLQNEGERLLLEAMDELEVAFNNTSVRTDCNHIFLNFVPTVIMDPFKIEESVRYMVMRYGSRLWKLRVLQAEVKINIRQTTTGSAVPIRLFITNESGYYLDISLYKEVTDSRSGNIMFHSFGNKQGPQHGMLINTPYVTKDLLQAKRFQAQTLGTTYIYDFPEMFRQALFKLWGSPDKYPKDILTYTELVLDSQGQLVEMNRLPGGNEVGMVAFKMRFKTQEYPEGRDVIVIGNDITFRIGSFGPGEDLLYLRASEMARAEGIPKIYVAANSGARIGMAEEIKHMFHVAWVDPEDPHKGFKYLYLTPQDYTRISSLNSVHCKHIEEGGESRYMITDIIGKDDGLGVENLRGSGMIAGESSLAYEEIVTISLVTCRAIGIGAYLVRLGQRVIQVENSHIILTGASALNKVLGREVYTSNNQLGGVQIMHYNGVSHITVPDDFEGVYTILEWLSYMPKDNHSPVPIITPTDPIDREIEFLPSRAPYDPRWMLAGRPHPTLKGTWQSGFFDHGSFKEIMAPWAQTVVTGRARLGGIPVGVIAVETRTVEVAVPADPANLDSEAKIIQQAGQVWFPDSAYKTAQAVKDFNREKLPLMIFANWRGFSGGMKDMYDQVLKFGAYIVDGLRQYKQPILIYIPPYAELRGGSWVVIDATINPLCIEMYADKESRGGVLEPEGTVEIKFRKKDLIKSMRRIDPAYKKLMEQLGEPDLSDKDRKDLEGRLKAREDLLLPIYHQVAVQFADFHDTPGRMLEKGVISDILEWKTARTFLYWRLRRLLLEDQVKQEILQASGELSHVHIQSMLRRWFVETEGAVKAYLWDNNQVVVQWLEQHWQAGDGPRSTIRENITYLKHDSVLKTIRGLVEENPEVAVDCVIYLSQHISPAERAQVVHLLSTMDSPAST
In short: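 N-terminally truncated (Δ128) human ACC2 expressed in baculovirus/insect cells; ADP formation coupled via pyruvate kinase/lactate dehydrogenase to NADH consumption, pH 7.5, 25 mM KHCO3, 1% DMSO. Reaction started with NADH, acetyl-CoA and ATP (500 uM f.c.); A340 slope over 15 min at 25° C, IC50 by four-parameter fit after subtracting no-acetyl-CoA controls.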

| IC50 | SMILES |
| --- | --- |
| 1750 nM | CC(=O)N[C@@H](C)c1ccc(N2CC(Oc3cccc(OC4CCOC4)n3)C2)cc1 (stereo partly shown) [Example 12.8] |
| 490 nM | CC(=O)N[C@@H](C)c1ccc(N2CC(Oc3cccc(OC(C)C)n3)C2)cc1 [Example 12.9] |
| 450 nM | CC(=O)N[C@@H](C)c1ccc(N2CC(Oc3cccc(C4CC4)n3)C2)cc1 [Example 12.10] |
| 330 nM | CCc1cccc(OC2CN(c3ccc([C@H](C)NC(C)=O)cc3)C2)n1 [Example 12.11] |
| 100 nM | CC(=O)N[C@@H](C)c1ccc(N2CC(Oc3cccc(C(F)F)n3)C2)cc1 [Example 12.12] |
| 180 nM | CC(=O)N[C@@H](C)c1ccc(N2CC(Oc3cccc(C4CCCC4)n3)C2)cc1 [Example 12.13] |
| 220 nM | CC(=O)N[C@@H](C)c1ccc(N2CC(Oc3cccc(C4CCC4)n3)C2)cc1 [Example 12.14] |
| 830 nM | CC(=O)N[C@@H](C)c1ccc(N2CC(Oc3cccc(N4CCOCC4)n3)C2)cc1 [Example 12.15] |
| 380 nM | CCOc1cccc(OC2CN(c3ccc([C@H](C)NC(C)=O)cc3)C2)n1 [Example 12.16] |
| 50 nM | CC(=O)N[C@@H](C)c1ccc(N2CC(Oc3cccc(C(C)(C)C)n3)C2)cc1 [Example 12.17] |
| 650 nM | CC(=O)N[C@@H](C)c1ccc(N2CC(Oc3cccc(OCC4CC4(F)F)n3)C2)cc1 (stereo partly shown) [Example 12.18] |
| 230 nM | CC(=O)N[C@@H](C)c1ccc(N2CC(Oc3cccc(C(C)C)n3)C2)cc1 [Example 12.19] |
| 350 nM | CC(=O)N[C@@H](C)c1ccc(N2CC(Oc3ccnc(N4CCOCC4)n3)C2)cc1 [Example 13.1, (S)—N-(1-{4-[3-(2-Morpholin-4-yl-pyrimidin-4-yloxy)-azetidin-1-yl]-phenyl}-ethyl)-acetamide] |
| 60 nM | CC(=O)N[C@@H](C)c1ccc(N2CC(Oc3ccnc(N4CCCC4)n3)C2)cc1 [Example 13.2, (S)—N-(1-{4-[3-(2-Pyrrolidin-1-yl-pyrimidin-4-yloxy)-azetidin-1-yl]-phenyl}-ethyl)-acetamide] |
| 380 nM | COc1cccc(OC2CN(c3ccc([C@H](C)NC(C)=O)cc3)C2)n1 [Example 14.1, (S)—N-(1-{4-[3-(6-Methoxy-pyridin-2-yloxy)-azetidin-1-yl]-phenyl}-ethyl)-acetamide] |
| 60 nM | CC(=O)N[C@@H](C)c1ccc(N2CC(Oc3cccc(C(F)(F)F)n3)C2)cc1 [Example 14.2] |
| 980 nM | CC(=O)N[C@@H](C)c1ccc(N2CC(Oc3ccnc(C)n3)C2)cc1 [Example 14.3, (S)—N-(1-{4-[3-(2-Methyl-pyrimidin-4-yloxy)-azetidin-1-yl]-phenyl}-ethyl)-acetamide] |
| 910 nM | CC(=O)NC(C)(C)c1ccc(N2CC(Oc3ccc(OCC4CC4)cc3)C2)cc1 [Example 15.1, N-(1-{4-[3-(4-Cyclopropylmethoxy-phenoxy)-azetidin-1-yl]-phenyl}-1-methyl-ethyl)-acetamide] |
| 130 nM | COCCOc1ccc(OC2CN(c3ccc([C@H](C)NC(=O)c4sc(NC(C)=O)nc4C)cc3)C2)cc1 [Example 16.1, (S)-2-Acetylamino-4-methyl-thiazole-5-carboxylic acid [1-(4-{3-[4-(2-methoxy-ethoxy)-phenoxy]-azetidin-1-yl}-phenyl)-ethyl]-amide] |
